Laboratory results reported in patent US20100093702A1, “METHYLENE AMINES OF THIENO[2,3-d]PYRIMIDINE AND THEIR USE AS ADENOSINE A2a RECEPTOR ANTAGONISTS” (priority 2008, published 2010).

How the values were obtained:
[1] = target: T1, human adenosine A2a receptor (Homo sapiens, UniProt P29274); experiment: Adenosine A2a Receptor Functional Assay (A2AGAL2); assay type: cell-based; conditions: CHO-K1 cells, cAMP inducible beta-galactosidase reporter, 15 nM NECA agonist challenge
T1 construct: expressed in transfected cells; host or cells: CHO-K1
Procedure: Adenosine A2a Receptor Functional Assay (A2AGAL2)
To initiate the functional assay, cryopreserved CHO-K1 cells overexpressing the human adenosine A2a receptor and containing a cAMP inducible beta-galactosidase reporter gene were thawed, centrifuged, DMSO containing media removed, and then seeded with fresh culture media into clear 384-well tissue culture treated plates (BD #353961) at a concentration of 10K cells/well. Prior to assay, these plates were cultured for two days at 37° C., 5% CO2, 90% Rh. On the day of the functional assay, culture media was removed and replaced with 45 uL assay medium (Hams/F-12 Modified (Mediatech # 10-080CV) supplemented w/0.1% BSA). Test compounds were diluted and 11 point curves created at a 1000× concentration in 100% DMSO. Immediately after addition of assay media to the cell plates, 50 nL of the appropriate test compound antagonist or agonist control curves were added to cell plates using a Cartesian Hummingbird. Compound curves were allowed to incubate at room temperature on cell plates for approximately 15 minutes before addition of a 15 nM NECA (Sigma E2387) agonist challenge (5 uL volume). A control curve of NECA, a DMSO/Media control, and a single dose of Forskolin (Sigma F3917) were also included on each plate. After additions, cell plates were allowed to incubate at 37° C., 5% CO2, 90% Rh for 5.5-6 hours. After incubation, media was removed, and cell plates were washed 1×50 uL with DPBS w/o Ca & Mg (Mediatech 21-031-CV). Into dry wells, 20 uL of 1× Reporter Lysis Buffer (Promega E3971 (diluted in dH2O from 5× stock)) was added to each well and plates frozen at −20° C. overnight. For β-galactosidase enzyme calorimetric assay, plates were thawed out at room temperature and 20 μL 2× assay buffer (Promega) was added to each well. Color was allowed to develop at 37° C., 5% CO2, 90% Rh for 1-1.5 h or until reasonable signal appeared. The calorimetric reaction was stopped with the addition of 60 μL/well 1M sodium carbonate. Plates were counted at 405 nm on a SpectraMax Microplate Reader (Molecular Devices). Data was analyzed in Microsoft Excel and IC/EC50 curves were fit using a standardized macro.

[2] = target: T2, human adenosine A1 receptor (Homo sapiens, UniProt P30542); experiment: Adenosine A1 Receptor Functional Assay (A1GAL2); assay type: cell-based; conditions: CHO-K1 cells, cAMP inducible beta-galactosidase reporter, 4 nM r-PIA/1 uM Forskolin challenge
T2 construct: expressed in transfected cells; host or cells: CHO-K1
T2 sequence (P30542 1-326): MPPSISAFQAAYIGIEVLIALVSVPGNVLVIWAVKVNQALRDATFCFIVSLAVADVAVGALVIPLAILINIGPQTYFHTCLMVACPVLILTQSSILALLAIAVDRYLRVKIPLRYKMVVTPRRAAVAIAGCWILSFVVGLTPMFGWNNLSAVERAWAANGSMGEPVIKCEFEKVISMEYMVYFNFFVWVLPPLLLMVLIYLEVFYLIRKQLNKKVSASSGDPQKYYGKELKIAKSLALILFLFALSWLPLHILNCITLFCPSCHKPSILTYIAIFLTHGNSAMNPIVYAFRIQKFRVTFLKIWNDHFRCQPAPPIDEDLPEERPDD
Procedure: Adenosine A1 Receptor Functional Assay (A1GAL2)
To initiate the functional assay, cryopreserved CHO-K1 cells overexpressing the human adenosine A1 receptor and containing a cAMP inducible beta-galactosidase reporter gene were thawed, centrifuged, DMSO containing media removed, and then seeded with fresh culture media into clear 384-well tissue culture treated plates (BD #353961) at a concentration of 10K cells/well. Prior to assay, these plates were cultured for two days at 37° C., 5% CO2, 90% Rh. On the day of the functional assay, culture media was removed and replaced with 45 uL assay medium (Hams/F-12 Modified (Mediatech # 10-080CV) supplemented w/0.1% BSA). Test compounds were diluted and 11 point curves created at a 1000× concentration in 100% DMSO. Immediately after addition of assay media to the cell plates, […] of the appropriate test compound antagonist or agonist control curves were added to cell plates using a Cartesian Hummingbird. Compound curves were allowed to incubate at room temperature on cell plates for approximately 15 minutes before addition of a 4 nM r-PIA (Sigma P4532)/1 uM Forskolin (Sigma F3917) agonist challenge (5 uL volume). A control curve of r-PIA in 1 uM Forskolin, a DMSO/Media control, and a single dose of Forskolin were also included on each plate. After additions, cell plates were allowed to incubate at 37° C., 5% CO2, 90% Rh for 5.5-6 hours. After incubation, media was removed, and cell plates were washed 1×50 uL with DPBS w/o Ca & Mg (Mediatech 21-031-CV).
Into dry wells, 20 uL of 1× Reporter Lysis Buffer (Promega E3971 (diluted in dH2O from 5× stock)) was added to each well and plates frozen at −20° C. overnight. For β-galactosidase enzyme calorimetric assay, plates were thawed out at room temperature and 20 μL 2× assay buffer (Promega) was added to each well. Color was allowed to develop at 37° C., 5% CO2, 90% Rh for 1-1.5 h or until reasonable signal appeared. The calorimetric reaction was stopped with the addition of 60 μL/well 1M sodium carbonate. Plates were counted at 405 nm on a SpectraMax Microplate Reader (Molecular Devices). Data was analyzed in Microsoft Excel and IC/EC50 curves were fit using a standardized macro.

T1 sequence (P29274 whole entry): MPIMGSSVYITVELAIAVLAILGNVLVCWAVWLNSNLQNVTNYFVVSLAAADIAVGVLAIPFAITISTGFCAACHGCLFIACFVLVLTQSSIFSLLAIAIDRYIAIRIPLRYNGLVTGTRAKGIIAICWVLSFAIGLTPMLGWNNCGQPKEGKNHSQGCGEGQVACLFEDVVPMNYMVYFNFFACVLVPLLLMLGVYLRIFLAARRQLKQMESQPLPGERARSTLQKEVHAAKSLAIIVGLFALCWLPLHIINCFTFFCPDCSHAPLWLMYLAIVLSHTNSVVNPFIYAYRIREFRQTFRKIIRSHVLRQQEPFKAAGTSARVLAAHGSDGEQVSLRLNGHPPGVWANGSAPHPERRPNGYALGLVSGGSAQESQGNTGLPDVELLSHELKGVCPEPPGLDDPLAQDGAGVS

| Compound | Ki [1] [nM] | Ki [2] [nM] |
| --- | --- | --- |
| CCc1ccc(-c2nc(N)c3cc(CN4CCOCC4)sc3n2)o1 [Example 8, 2-(5-Ethyl-furan-2-yl)-6-morpholin-4-ylmethyl-thieno[2,3-d]pyrimidin-4-ylamine] | 78.2 | > 610 |
| Cc1csc(-c2nc(N)c3cc(CN4[C@H](C)CCC[C@@H]4C)sc3n2)n1 [Example 9, 6-(2,6-Dimethyl-piperidin-1-ylmethyl)-2-(4-methyl-thiazol-2-yl)-thieno[2,3-d]pyrimidin-4-ylamine] | 89.4 | 297 |
| CC(C)c1ccc(-c2nc(N)c3cc(CN4[C@H](C)CCC[C@@H]4C)sc3n2)o1 [Example 10, 6-(2,6-Dimethyl-piperidin-1-ylmethyl)-2-(5-isopropyl-furan-2-yl)-thieno[2,3-d]pyrimidin-4-ylamine] | 17.3 | 144 |
| CCc1ccc(-c2nc(N)c3cc(CN4[C@H](C)CCC[C@@H]4C)sc3n2)o1 [Example 11, 6-(2,6-Dimethyl-piperidin-1-ylmethyl)-2-(5-ethyl-furan-2-yl)-thieno[2,3-d]pyrimidin-4-ylamine] | 24.9 | 194 |
| C[C@@H]1CCC[C@H](C)N1Cc1cc2c(N)nc(-c3ccc(C4CC4)o3)nc2s1 [Example 12, 2-(5-Cyclopropyl-furan-2-yl)-6-(2,6-dimethyl-piperidin-1-ylmethyl)-thieno[2,3-d]pyrimidin-4-ylamine] | 114 | 333 |
| C[C@@H]1CCC[C@H](C)N1Cc1cc2c(N)nc(-c3ccc(C(C)(C)C)s3)nc2s1 [Example 13, 2-(5-tert-Butyl-thiophen-2-yl)-6-(2,6-dimethyl-piperidin-1-ylmethyl)-thieno[2,3-d]pyrimidin-4-ylamine] | > 2340 | > 927 |
| CC(C)(C)c1ccc(-c2nc(N)c3cc(CN4CCOCC4)sc3n2)s1 [Example 14, 2-(5-tert-Butyl-thiophen-2-yl)-6-morpholin-4-ylmethyl-thieno[2,3-d]pyrimidin-4-ylamine] | > 2340 | > 927 |
| Cc1csc(-c2nc(N)c3cc(CN4CCOCC4)sc3n2)n1 [Example 15, 2-(4-Methyl-thiazol-2-yl)-6-morpholin-4-ylmethyl-thieno[2,3-d]pyrimidin-4-ylamine] | 208 | > 927 |
| Nc1nc(-c2ccon2)nc2sc(CN3CCOCC3)cc12 [Example 16, 2-Isoxazol-3-yl-6-morpholin-4-ylmethyl-thieno[2,3-d]pyrimidin-4-ylamine] | 1010 | 678 |
| C[C@@H]1CN(Cc2cc3c(N)nc(-c4cccc(C#N)c4)nc3s2)C[C@H](C)O1 [Example 17, 3-[4-Amino-6-(2,6-dimethyl-morpholin-4-ylmethyl)-thieno[2,3-d]pyrimidin-2-yl]-benzonitrile] | 150 | 1070 |
| C[C@@H]1CCC[C@H](C)N1Cc1cc2c(N)nc(-c3ccon3)nc2s1 [Example 18, 6-(2,6-Dimethyl-piperidin-1-ylmethyl)-2-isoxazol-3-yl-thieno[2,3-d]pyrimidin-4-ylamine] | 130 | 504 |
| C[C@@H]1CCC[C@H](C)N1Cc1cc2c(N)nc(-c3ccc(Br)o3)nc2s1 [Example 19, 2-(5-Bromo-furan-2-yl)-6-(2,6-dimethyl-piperidin-1-ylmethyl)-thieno[2,3-d]pyrimidin-4-ylamine] | 12 | 39.6 |
| N#Cc1cccc(-c2nc(N)c3cc(CN4CCCC4c4ccccc4)sc3n2)c1 (stereo not drawn) [Example 20, 3-[4-Amino-6-(2-phenyl-pyrrolidin-1-ylmethyl)-thieno[2,3-d]pyrimidin-2-yl]-benzonitrile] | 154 | 762 |
| CC(C)c1ccc(-c2nc(N)c3cc(CN4CCOCC4)sc3n2)o1 [Example 21, 2-(5-Isopropyl-furan-2-yl)-6-morpholin-4-ylmethyl-thieno[2,3-d]pyrimidin-4-ylamine] | > 1360 | > 594 |
| Nc1nc(-c2ccc(C3CC3)o2)nc2sc(CN3CCOCC3)cc12 [Example 22, 2-(5-Cyclopropyl-furan-2-yl)-6-morpholin-4-ylmethyl-thieno[2,3-d]pyrimidin-4-ylamine] | 958 | > 1070 |
| C[C@@H]1CCC[C@H](C)N1Cc1cc2c(N)nc(-c3cccc(C#N)c3)nc2s1 [Example 23, 3-[4-Amino-6-(2,6-dimethyl-piperidin-1-ylmethyl)-thieno[2,3-d]pyrimidin-2-yl]-benzonitrile] | 64.5 | 464 |
| Nc1nc(-c2nccs2)nc2sc(CN3CCOCC3)cc12 [Example 25, 6-Morpholin-4-ylmethyl-2-thiazol-2-yl-thieno[2,3-d]pyrimidin-4-ylamine] | 245 | 2730 |
| Nc1nc(C2CC2)nc2sc(CN3CCCC3)cc12 [Example 43, 2-Cyclopropyl-6-pyrrolidin-1-ylmethyl-thieno[2,3-d]pyrimidin-4-ylamine] | 404 | > 10000 |
| Nc1nc(-c2cc(F)cc(F)c2)nc2sc(CN3CCOCC3)cc12 [Example 47, 2-(3,5-Difluoro-phenyl)-6-morpholin-4-ylmethyl-thieno[2,3-d]pyrimidin-4-ylamine] | 349 | 2300 |
| Nc1nc(-c2cccc(Cl)c2)nc2sc(CN3CCC(F)CC3)cc12 [Example 48, 2-(3-Chloro-phenyl)-6-(4-fluoro-piperidin-1-ylmethyl)-thieno[2,3-d]pyrimidin-4-ylamine] | 733 | 855 |
| Nc1nc(-c2cccc(Cl)c2)nc2sc(CN3CCOCC3)cc12 [Example 49, 2-(3-Chloro-phenyl)-6-morpholin-4-ylmethyl-thieno[2,3-d]pyrimidin-4-ylamine] | 117 | 785 |
| Nc1nc(-c2ccc(F)c(F)c2)nc2sc(CN3CCOCC3)cc12 [Example 50, 2-(3,4-Difluoro-phenyl)-6-morpholin-4-ylmethyl-thieno[2,3-d]pyrimidin-4-ylamine] | 361 | 2890 |
| Nc1nc(-c2cc(F)cc(F)c2)nc2sc(CN3CCC(F)CC3)cc12 [Example 55, 2-(3,5-Difluoro-phenyl)-6-(4-fluoro-piperidin-1-ylmethyl)-thieno[2,3-d]pyrimidin-4-ylamine] | 1060 | 3410 |
| Nc1nc(-c2cccc(F)c2)nc2sc(CN3CCSCC3)cc12 [Example 58, 2-(3-Fluoro-phenyl)-6-thiomorpholin-4-ylmethyl-thieno[2,3-d]pyrimidin-4-ylamine] | 73.6 | 331 |
